In one test the test system is Alternaria solani. As to the kind of experiment: Alternaria solani / tomato / leaf disc (early blight). Particulars: foliar, tomato leaf disks, sprayed 2 days before inoculation, compared to untreated control. The format is in vivo. Here is the method: Example B1: Alternaria solani/Tomato/Leaf Disc (Early Blight) Tomato leaf disks cv. Baby are placed on agar in multiwell plates (24-well format) and sprayed with the formulated test compound diluted in water. The leaf disks are inoculated with a spore suspension of the fungus 2 days after application. The inoculated leaf disks are incubated at 23° C./21° C.

Another test has as its system Pyrenophora teres. As to the kind of experiment: Pyrenophora teres / barley / leaf disc preventative (net blotch). The format is in vivo. The following applies: foliar, barley leaf segments, inoculated 2 days after application. The method in brief: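 Barley cv. Hasso leaf segments on agar sprayed with formulated compound, inoculated with spores 2 days later. Incubated at 20 °C, 65% rh, 12 h light/dark; disease control versus untreated assessed 5–7 days after application.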

For test [1], the system named is Mycosphaerella graminicola (Septoria tritici). Nature of the test: Mycosphaerella graminicola (Septoria tritici) / liquid culture (Septoria blotch). The format is cell-based. Particulars: Zymoseptoria tritici, growth inhibition photometrically 4-5 days after application, read-out: control of Mycosphaerella graminicola. Put shortly: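 Conidia suspended in potato dextrose broth and added to test compound supplied in DMSO in 96-well plates. Incubated at 24 °C, and growth inhibition read photometrically 4-5 days after application.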

For test [2], the system named is Monographella nivalis (Microdochium nivale). As to the kind of experiment: Monographella nivalis (Microdochium nivale) / liquid culture (foot rot cereals). The format is cell-based. Particulars: growth inhibition photometrically 4-5 days after application, read-out: control of Monographella nivalis. The method in brief: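 Fungal conidia mixed directly into potato dextrose broth and added to test compound delivered in DMSO. Incubated at 24° C; growth inhibition read photometrically 4-5 days after application.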

The subject of test [3] is Blumeria graminis f. sp. tritici (Erysiphe graminis f. sp. tritici). Nature of the test: Blumeria graminis f. sp. tritici / wheat / leaf disc preventative (powdery mildew on wheat). The format is in vivo. Particulars: foliar, wheat leaf segments, inoculated 1 day after application. The method in brief:
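Wheat cv. Kanzler leaf segments on agar sprayed with formulated compound in water, inoculated 1 day later by shaking mildew-infected plants overhead. Incubated at 20° C, 60% rh, 24 h dark then 12 h light/12 h dark. Percent disease control versus untreated scored 6-8 days after application.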

The subject of test [4] is Glomerella lagenarium (Colletotrichum lagenarium). Nature of the test: Glomerella lagenarium (Colletotrichum lagenarium) / liquid culture (anthracnose). It counts as cell-based. The following applies: Colletotrichum orbiculare, growth inhibition photometrically 3-4 days after application, read-out: control of Glomerella lagenarium. Put shortly: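 Cryo-stored conidia in potato dextrose broth were added to test compound in DMSO. Plates were incubated at 24° C, and growth inhibition was read photometrically 3-4 days after application.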

Test [5] relates to Botryotinia fuckeliana (Botrytis cinerea). Nature of the test: Botryotinia fuckeliana (Botrytis cinerea) / liquid culture (gray mould). It counts as cell-based. Particulars: growth inhibition photometrically 3-4 days after application, read-out: control of Botryotinia fuckeliana. The method in brief: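 Conidia suspended in Vogels broth and added to compound dispensed from DMSO. Incubated at 24°C, with growth inhibition measured photometrically 3–4 days later.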

Test [6] deals with Puccinia recondita f. sp. tritici. Nature of the test: Puccinia recondita f. sp. tritici / wheat / leaf disc curative (brown rust). It counts as in vivo. Particulars: 200 ppm, wheat leaf segments, applied 1 day after inoculation. Here is the method:
Example B11: Puccinia recondita f. Sp. Tritici/Wheat/Leaf Disc Curative (Brown Rust)
Wheat leaf segments cv. Kanzler are placed on agar in multiwell plates (24-well format). The leaf segments are inoculated with a spore suspension of the fungus. Plates are stored in darkness at 19° C. and 75% rh. The formulated test compound diluted in water is applied 1 day after inoculation. The leaf segments are incubated at 19° C. and 75% rh under a light regime of 12 h light/12 h darkness in a climate cabinet and the activity of a compound is assessed as percent disease control compared to untreated when an appropriate level of disease damage appears in untreated check leaf segments (6-8 days after application).

Usually pest or weed control stands for the degree to which the test organism was suppressed or injured, in per cent.

Consider `Cc1ccc(C(C)(CNC(=O)c2cc(-c3ccc(F)cc3F)on2)c2cnn(C)c2)nc1` (centres unmarked) [Compound P-19, 5-(2,4-difluorophenyl)-N-[2-(1-methylpyrazol-4-yl)-2-(5-methyl-2-pyridyl)propyl] isoxazole-3-carboxamide], for which the pest or weed control at 200 ppm (in the test with Alternaria solani; in the test with Pyrenophora teres; in test [3]) was not below 80% each time. Moreover, the inhibition of growth at 20 ppm in test [1], in test [2], in test [4] and in test [5] was not below 80% in each case. Also, the “control of Puccinia recondita f. sp. tritici” value in test [6] is recorded as “at least 80%”.

The values above are taken from US20240343717A1, “MICROBIOCIDAL PYRAZOLE DERIVATIVES” (SYNGENTA CROP PROTECTION AG, priority 2021, published 2024).
